This note sets out measurements from patent US20250262272A1, “PEPTIDES AND METHODS OF USE THEREOF IN TREATING SKIN DISEASES” (Park Strategic Ventures LLC, priority 2022, published 2025).

Test [1] has as its system imiquimod induced mouse model of psoriasis. Put plainly: imiquimod induced mouse model of psoriasis. The class given is in vivo, C57BL/6 mice. The text has this: FIG. 2A illustrates the methodological details of an imiquimod induced mouse model of psoriasis. In particular, shown is a timeline of the psoriasis induction model and application of the MARCKS inhibitor (BIO 11006) and the three different outcomes analyzed.
FIG. 2B illustrates the skin thickness in micrometers of mice administered imiquimod daily for seven (7) days in order to mimic psoriasis in one (1) test group as compared to the skin thickness in micrometers from either of two (2) control groups. The test group consisted of mice administered imiquimod daily plus intraperitoneal (ip) injection of BIO 11006 as a daily single dose on each of days 1-7. The two (2) control groups consisted of (1) mice administered vaseline and (2) mice administered imiquimod daily and phosphate buffered saline (PBS). N=6-7 mice, mean+SD, 1-way ANOVA, Tukey test.
FIG. 3 depicts images of mice the skin on the nape of the neck for the test group and two control groups described for FIG. 2B and Example 1. #1, 2 and 3 represent same treatments.
FIG. 4 illustrates the percent dryness, flakiness, skin bumps and redness the skin on the nape of the neck for the test group and two control groups described for FIG. 2B and Example 1. At a scale of 0-5, 0 indicated no visible signs or symptoms; 1-3 indicated moderate forms of the respective sign or symptom; 4-5 indicated major forms of the respective sign or symptom.
Since skin inflammation and itch are common problems, two different mouse models with inflammation and itch were developed and used for rigorous in vivo testing of the inhibition of skin inflammation and itch in response to administration of the MARCKS inhibitor BIO11006 (Ac-GAQFSKTAAK-OH; SEQ ID NO: 106). The first model is a mouse model of AD induced using MC903. The second model is a mouse model of psoriasis induced using imiquimod. Imiquimod-induced disease progression of skin inflammation and itch resemble the MC903 mouse model. As such, the same relative timeline and drug delivery was used for the psoriasis mouse model as described for MC903 mouse model with exception that the terminal day was day 7 (D7 in FIG. 2A). As outlined in FIGS. 1A and 2A, these mouse models were used to conduct a comprehensive examination of how BIO11006 spatially and kinetically changed the skin following the onset of AD-like or psoriasis-like disease symptoms by measuring skin thickness, histological, molecular analysis of inflammatory markers, and itch behavior.
Given that the significant skin inflammation was expected to start at day 5, BIO11006 (100 μM) was administered by intraperitoneal injection in three (3) different settings as described in FIG. 2A (i.e., daily single doses from Day 1 through Day 7, Days 6 and 7 or just Day 7). The skin thickness was measured at Day 0, 1, 3, 5, and 7. Additionally, the itch behavior was recorded at Day 0 and Day 7.

Test [2] deals with MC903 induced mouse model of atopic dermatitis (AD). Put plainly: MC903 induced mouse model of atopic dermatitis (AD). The format is in vivo, C57BL/6 mice. As to conditions: BIO11006 100 μM ip; day 10 only, days 9-10, days 4-10 or days 1-10. The text has this: FIG. 1A illustrates the methodological details of an MC903 induced mouse model of atopic dermatitis (AD). In particular, shown is a timeline of the AD induction model and application of the MARCKS inhibitor (BIO 11006) and the three different outcomes analyzed.
FIG. 1B illustrates the skin thickness in micrometers of mice administered MC903 daily for ten (10) days in order to mimic atopic dermatitis (AD) in each of four (4) test groups as compared to the skin thickness in micrometers of mice from either of two (2) control groups. The four (4) test groups consisted of mice administered MC903 daily plus intraperitoneal (ip) injection of BIO 11006 as either (1) a single dose on day 10, (2) a single dose on each of days 9 and 10, (3) a single dose on each of days 4-10, and (4) a daily single dose on each of days 1-10. The two (2) control groups consisted of (1) mice administered the vehicle only and (2) mice administered MC903 daily and vehicle only. […]
Given that the significant skin inflammation was expected to start at day 5, BIO11006 (100 μM) was administered by intraperitoneal injection in four (4) different settings as described in FIG. 1A (i.e., daily single doses from Day 1 through Day 10, Day 4 through Day 10, Days 9 and 10 or just Day 10). The skin thickness was measured at Day 0, 1, 3, 5, 7 and 10. Additionally, the itch behavior was recorded at Day 0 and Day 10.

The mark [3] stands for this setting: BIO11006 100 μM ip daily, days 1-7, nape of the neck, scale 0-5 (FIG. 4).

As for Ac-GAQFSKTAAK-OH [BIO 11006], the “visible appearance of the skin on the nape of the neck” value in test [1] (BIO11006 100 μM ip daily, days 1-7 (FIG. 3)) is “visible protection/improvement”. In test [1] (setting [3]), the skin bumps result is “significant decreases”, the skin dryness result is “significant decreases”, the skin flakiness result was “significant decreases” and the skin redness entry is on record as “significant decreases”. Moreover, the skin thickness result in test [1] (BIO11006 100 μM ip, daily single dose days 1-7, end of the study, vs imiquimod + PBS (FIG. 2B)) was “significant decrease”. Further, the “results in the mouse model of AD (skin thickness, FIG. 1B)” value in test [2] is reported as “less conclusive”.
